Patent US20190060340A1, “NOVEL AMINOGLYCOSIDES AND USES THEREOF IN THE TREATMENT OF GENETIC DISORDERS” (Technion Research & Development Foundation Limited, priority 2007, published 2019)
Values after ≈ are worked out from the molar mass of the structure shown. Where two headings read alike, the source gives them in different places.

Tests used:
[1] = available toxicity data on aminoglycosides; unit inferred; cited from earlier work
[2] = tested on: R3X nonsense mutation (a premature UGA C stop codon) of the PCDH15 gene; experiment: In vitro suppression and translation, pDB650-R3X reporter plasmid in rabbit reticulocyte lysate coupled transcription/translation system; format: biochemical, human; conditions: for Conc. (concentration at which maximal suppression level was observed) / Supp. level (%), maximal in-vitro mutation suppression: R3X mutation; for Conc. (concentration at which maximal suppression level was observed): in vitro; for Supp. level (%), maximal in-vitro mutation suppression: 35-kDa product out of total protein; for Supp. level (%), maximal in-vitro mutation suppression / Trans. level (%): at Conc. of maximal suppression; for Trans. level (%): total protein relative to no compound
Method: Initially, Compounds 1-9 were tested for their ability to suppress this nonsense mutation in vitro, using a reporter construct carrying the R3X nonsense mutation (a premature UGA C stop codon) of the PCDH15 gene. Mutations in the PCDH15 gene which encodes protocardherin 15, cause type 1 Usher syndrome (USH1), which is characterized by profound prelingual hearing loss, vestibular areflexia, and prepubertal onset of retinitis pigmentosa (RP). Four different PCDH15 USH1-causing nonsense mutations, R3X, R245X, R643X, and R929X, have been reported in humans.
Suppression of nonsense mutations by Compounds 1-9 was tested in vitro using a reporter plasmid harboring the R3X mutation of the PCDH15 gene. To create this plasmid, the oligonucleotides 5′-[…]-3′ (SEQ ID NO: 1) and 5′-[…]-3′ (SEQ ID NO: 2) were annealed to each other and inserted into the BamHI and HindIII sites of plasmid pDB650 [6].
The resulting reporter plasmid pDB650-R3X contained a TGA C nonsense mutation between a 25-kDa polypeptide encoding open reading frame (ORF) and a 10-kDa polypeptide encoding ORF.
The plasmid was transcribed and translated in a rabbit reticulocyte lysate coupled transcription/translation system (Promega) in the presence of [^35S]-methionine, and the reaction products were separated by SDS-PAGE and quantified using Phosphorlmager analysis. The mutation suppression level was calculated as the relative proportion of the 35-kDa product out of total protein (the sum of 35-kDa and 25-kDa), and the translation level was calculated as the relative proportion of the total protein at each tested compound concentration out of the total protein without the presence of the tested compounds.
The tested concentrations of paromomycin were 0, 5, 10, 20, 30 and 40 μg/ml, tested concentrations of gentamicin were 0, 5, 10, 20, and 30 μg/ml, and the tested concentrations of Compounds 1-9 were in the range of 0-160 μg/ml.
Compound 37 was tested for its ability to suppress a nonsense mutation in-vitro, using a reporter construct carrying either R3X nonsense mutation (a premature UGA C stop codon) or R245X nonsense mutation (a premature UGA A stop codon) of the PCDH15 gene, using gentamicin, paromomycin and Compound 3 as standards and following the experimental procedures presented hereinabove.
For the rat-PGM-β-Gal in vitro readthrough system, the pDB series of reporter plasmids harbor the following elements under SP6 promoter control: an open reading frame (ORF) derived from the 5′ end of the rat PGM gene, which encodes a 25-kDa polypeptide; another small ORF, encoding the 10-kDa alpha complementation region of β-galactosidase, and terminated by tandem, in-frame stop codons (UAA UAG); located between the two ORFs is a DNA fragment derived from PCDH15 cDNA, including the tested stop mutation or the corresponding wild-type codon, and six upstream and downstream flanking codons (except for p.R3X constructs, in which there are only two upstream PCDH15-flanking codons). The fragments were created by annealing the following couples of complementary oligonucleotides:
The fragments were inserted into the BamHI and HindIII restriction sites of the pDB read-through construct. Reporter plasmids harboring each of the four nonsense mutations and the corresponding wt alleles were in vitro transcribed and translated using the TNT SP6 Coupled Reticulocyte lysate System (Promega) in the presence of [^35S]-methionine and increasing concentrations of aminoglycosides as described previously. […] The degree of suppression was calculated as the relative proportion of the 35-kDa product out of total reaction products (35-kDa and 25-kDa polypeptides). The results are averages of at least three independent experiments.

[3] = tested on: Bacillus Subtilis ATCC 6633; experiment: Antibacterial activity, MIC by double-microdilution method; format: cell-based; conditions: Bacillus subtilis
Method: (§1) In order to compare the observed aminoglycoside-induced stop codon read-through activity in mammalian cells to antibacterial activity thereof, Compounds 1-9 were further investigated as antibacterial agents against both Gram-negative (E. coli) and Gram-positive (Bacillus subtilis) bacteria, and the minimal inhibitory concentration (MIC) values were determined by using a microdilution assay with paromomycin and gentamicin as controls, and the results are presented in Table 18 hereinabove.
(§2) The bacterial strains used were Escherichia coli ATCC 25922, and Bacillus Subtilis ATCC 6633. […] All the experiments were performed in triplicates and analogous results were obtained in two to four different experiments.

[4] = tested on: Escherichia coli ATCC 25922; experiment: as above; format: cell-based; conditions: for MIC: Escherichia coli
Method: as §1, §2

[5] = tested on: human fibroblast cells; conditions: cited from earlier work
[6] = tested on: stop mutations; conditions: literature; cited from earlier work
[7] = tested on: original p2Luc plasmid containing a TGA C nonsense mutation; experiment: Dual luciferase in vitro transcription/translation assay; format: biochemical
From the text: (§3) DNA fragments derived from the subsequent genes, including the tested stop mutation or the corresponding wild-type codon, and four upstream and downstream flanking codons (except for p.R3X constructs, in which there are only two upstream PCDH15-flanking codons) were cloned into p2Luc plasmid between renilla and firefly luciferase genes as described previously. The formed plasmids, as well as the original p2Luc plasmid containing a TGA C nonsense mutation, were transcribed and translated in vitro and the stop codon suppression efficiency was calculated as described previously.
(§4) For the dual luciferase in vitro transcription/translation assay, DNA fragments derived from PCDH15, CFTR, Dystrophin and IDUA cDNAs, including the tested stop mutation or the corresponding wild-type codon, and four upstream and downstream flanking codons (except for p.R3X constructs, in which there are only two upstream PCDH15-flanking codons) were created by annealing the couples of complementary oligonucleotides presented above.
(§5) Fragments were inserted into the SalI and SacI restriction sites of the p2Luc plasmid between renilla and firefly luciferase genes. The afforded plasmids, as well as the original p2Luc plasmid containing a TGA C nonsense mutation, were transcribed and translated using the TNT Reticulocyte Lysate Quick Coupled Transcription/Translation System (Promega™). Each transcription/translation reaction (10 μl, total volume) contained 8 μl TNT T7 Quick Master Mix, 0.2 μl methionine (1 mM), 0.8 μl DNA template (2 μg/μl), 1 μl of either water (blank) or 1 μl solution of increasing concentrations of the tested aminoglycosides in water. Luciferase activity was determined following 90 minutes incubation at 30° C. using the Dual Luciferase Reporter Assay System (Promega™). The total luminescence produced by each one of the proteins was measured separately using the FLx800 multidetection plate reader (Bio-Tek) and the stop codon suppression efficiency was calculated as described previously. The results are averages of at least three independent experiments.

[8] = tested on: R3X (PCDH15, Usher Syndrome); experiment: as above; format: biochemical, human
From the text: as §3, §4, §5

[9] = ATCC6633, ATCC 6633, read-out: MIC B. Subtilis
[10] = ATCC25922, ATCC 25922, read-out: MIC E. coli

Compound | LD50 [1] | Conc. (concentration at which maximal suppression level was observed) [2] | Supp. level (%), maximal in-vitro mutation suppression [2] | Trans. level (%) [2] | MIC [3, 9] | MIC [4, 10] | further results
N[C@@H]1[C@@H](O)[C@@H](O[C@@H]2[C@@H](O)[C@H](O[C@H]3O[C@H](CO)[C@@H](O)[C@H](O)[C@H]3N)[C@@H](N)C[C@H]2N)O[C@H](CO)[C@H]1O [kanamycin C] | 225 mg/kg | – | – | – | – | – | –
NC[C@H]1O[C@@H](OC2C(N)[C@@H](O[C@@H]3C(N)C[C@@H](N)C(O)C3O)OC(CO)[C@H]2O)C(O)C1O (stereo partly shown) [Compound 7] | – | 80 µg/mL | 2.9 ± 2% | 98 ± 10% | 48 µg/mL (≈ 106 µM) | 192 µg/mL (≈ 422 µM) | –
NC1C(OCOC2C(N)[C@H](O[C@H]3C(N)C[C@H](N)C(O)C3O)OC(CO)[C@@H]2O)[C@H](O)C(CO)O[C@@H]1O[C@@H]1C(N)C[C@@H](N)C(O)C1O (stereo partly shown) [Compound 9] | – | 80 µg/mL | <1% | 22 ± 2% | 48 µg/mL (≈ 72.9 µM) | 96 µg/mL (≈ 146 µM) | –
NCCC(O)C(=O)NC1CC(N)C(OC2OC(CN)C(O)C(O)C2N)C(O)C1O (stereo not shown) [N1-AHB-neamine] | 260 mg/kg | – | – | – | – | – | –
NC[C@H]1O[C@H](O[C@H]2[C@H](O)[C@@H](O[C@H]3O[C@H](CO)[C@@H](O)[C@H](N)[C@H]3O)[C@H](N)C[C@@H]2N)[C@H](O)[C@@H](O)[C@@H]1O [kanamycin] | – | – | – | – | – | – | LD50 against human fibroblast cells [5]: 2.5 to 5.0 mg/mL
NC[C@@H]1O[C@@H](O[C@H]2[C@H](O)[C@@H](O[C@H]3O[C@H](CO)[C@@H](O)[C@H](N)[C@H]3O)[C@H](N)C[C@@H]2N)[C@@H](O)[C@H](O)[C@H]1O [kanamycin A] | 280 mg/kg | – | – | – | – | – | stop mutations suppression / read-through activity [6]: does not show any read-through activity
CN[C@@H]1[C@@H](O)[C@@H](O[C@@H]2[C@@H](O)[C@H](O[C@H]3O[C@H]([C@@H](C)O)[C@@H](O)[C@H](O)[C@H]3N)[C@@H](N)C[C@H]2N)OC[C@]1(C)O [Compound G-418, G-418] | – | – | – | – | – | – | LD50 against human fibroblast cells ([5]; ref [49]): 0.04 mg/mL
NC[C@H]1O[C@@H](OC2C(O)[C@H](O[C@H]3OC(CO)[C@@H](O)C(O)C3N)C(N)C[C@H]2N)C(O)C1O (stereo partly shown) [Compound 5] | – | 80 µg/mL | 4.4 ± 2% | 75 ± 9% | 192 µg/mL (≈ 422 µM) | > 512 µg/mL | –
NC1C[C@@H](N)[C@@H](O)[C@@H](O[C@@H]2O[C@H](CO)[C@H](O)C2O)[C@@H]1O[C@H]1OC(CO)[C@@H](O)[C@H](O)[C@@H]1N (stereo partly drawn) [Compound 2, (3S,4R,5S,6S)-5-amino-6-((1R,2R,3R,4R)-4,6-diamino-2-((2S,4R,5R)-3,4-dihydroxy-5-(hydroxymethyl)-tetrahydrofuran-2-yloxy)-3-hydroxycyclohexyloxy)-2-(hydroxymethyl)-tetrahydro-2H-pyran-3,4-diol] | – | 80 µg/mL | 1.3 ± 0.1% | 100 ± 10% | 64 µg/mL (≈ 141 µM) | 256 µg/mL (≈ 562 µM) | –
NC1CC(N)[C@@H](O[C@H]2OC(CO)[C@@H](O)C(O)C2N)C(O)C1O (stereo partly shown) [Compound 1, Paromamine] | – | 80 µg/mL | 6.2% | 74 ± 15% | – | – | Supp. level (%), maximal in-vitro mutation suppression ([2]; listed as Paromamine): 6.2 ± 0.2%; MIC ([3]; ATCC6633, read-out: MIC B. Subtilis): 128 µg/mL (≈ 396 µM); MIC ([4]; ATCC25922, read-out: MIC E. coli): 512 µg/mL (≈ 1580 µM); Conc. (μM) at which maximum suppression level was achieved ([7]; dual luciferase in vitro system, all constructs of Table 21): 490 µM; Maximum in vitro suppression (%) UGAC ([7]; p2luc): 1.1 ± 0.1%; Maximum in vitro suppression (%) R3X [8]: 0.6 ± 0.1%
NC1C[C@@H](N)[C@@H](O[C@@H]2O[C@H](CO)[C@H](O)C2O)[C@@H](O)[C@@H]1O[C@H]1OC(CO)[C@@H](O)[C@H](O)[C@@H]1N (stereo partly drawn) [Compound 4, (3S,4R,5S,6S)-5-amino-6-((1R,2S,3R,4R)-4,6-diamino-3-((2R,4R,5R)-3,4-dihydroxy-5-(hydroxymethyl)-tetrahydrofuran-2-yloxy)-2-hydroxycyclohexyloxy)-2-(hydroxymethyl)-tetrahydro-2H-pyran-3,4-diol] | – | 80 µg/mL | 1.5 ± 0.1% | 74 ± 7% | 96 µg/mL (≈ 211 µM) | 256 µg/mL (≈ 562 µM) | –
NC[C@H]1O[C@H](O[C@H]2[C@H](O)[C@@H](O[C@H]3O[C@H](CO)[C@@H](O)[C@H](N)[C@H]3O)[C@H](N)C[C@@H]2N)[C@H](N)[C@@H](O)[C@@H]1O [kanamycin B] | 132 mg/kg | – | – | – | – | – | –
NC1C(N)[C@H](O)C(CO)O[C@@H]1O[C@@H]1C(N)C[C@@H](N)C(O)C1O (stereo partly shown) [Compound 8] | – | 80 µg/mL | 2.0 ± 2% | 71 ± 7% | 48 µg/mL (≈ 149 µM) | 192 µg/mL (≈ 596 µM) | fold lower antimicrobial activity as compared to paromomycin ([4]; from Table 18, E. coli and B. subtilis): 6-16 fold
NCC[C@H](O)C(=O)N[C@@H]1C[C@H](N)[C@@H](O[C@H]2O[C@H](CN)[C@@H](O)[C@H](O)[C@H]2O)[C@H](O)[C@H]1O[C@H]1O[C@H](CO)[C@@H](O)[C@H](N)[C@H]1O [amikacin] | 300 mg/kg | – | – | – | – | – | –
NC[C@H]1O[C@H](O[C@H]2[C@H](O)[C@@H](O)[C@H](N)C[C@@H]2N)[C@H](N)[C@@H](O)[C@@H]1O [neamine] | 125 mg/kg | – | – | – | – | – | –
